In ChEMBL document CHEMBL3351664, “Acylphloroglucinol derivatives from Hypericum andinum: antidepressant-like activity of andinin A” (J Nat Prod, 2014):

Tests used:
[1] = tested on: Mus musculus; assay: Antidepressant-like activity in po dosed mouse assessed as reduction in the immobility time by forced-swimming test; assay type: functional, organism-based
[2] = tested on: Mus musculus; assay: Toxicity in po dosed CF1 mouse assessed as effect on locomotor activity at 30 mg/kg, po measured after 60 mins by open-field test; assay type: organism-based; parameters: dose 30 mg/kg, route oral; details: in vivo, 1 h

Structure (SMILES): CC(C)=CCOc1cc(O)c(C(=O)C(C)C)c(O)c1CC1=C(O)C(C)(C)C(O)=C(C(=O)C(C)C)C1=O
- Activity [1]: Dose-dependent effect
- Activity [2]: Non-toxic
